Reference: PMC3216299 (Bioorganic & medicinal chemistry, 2011)

What was measured:
[1] = test system: tubulin; assay: Tubulin polymerization inhibition; format: biochemical, mammalian; conditions: 100 μM
[2] = test system: Mtb H37Rv; assay: Mtb H37Rv growth inhibition; format: cell-based, Mycobacterium tuberculosis

| SMILES | Tubulin Polymerization inhibition [1] | IC90 (H37Rv) fold less active than lead compound 2 [2] | IC90 ([2]; Mycobacterium tuberculosis, H37RV, read-out: Mtb H37Rv IC90, extrapolated from 10 point dose response curve) |
| --- | --- | --- | --- |
| CCOC(=O)Nc1nc(NC(C)CCCN(CC)CC)c2nc(-c3ccccc3)c(-c3ccccc3)nc2n1 (centres unmarked) [Compound 2, reference compound] | 24% inhibition 100 μM |  |  |
| CCOC(=O)Nc1cc(NCCCCN(CC)CC)c2nc(-c3ccccc3)c(-c3ccccc3)nc2n1 [Compound 17, Ethyl (8-((4-(diethylamino)butyl)amino)-2,3-diphenylpyrido[2,3-b]pyrazin-6-yl)carbamate] | 40% inhibition 100 μM |  |  |
| CCOC(=O)Nc1nc(NC(C)CCCN(CC)CC)c2c(n1)SC(c1ccccc1)C(c1ccccc1)=N2 (centres unmarked) [Compound 37, Ethyl (4-((5-(diethylamino)pentan-2-yl)amino)-6,7-diphenyl-7H-pyrimido[4,5-b][1,4]thiazin-2-yl) carbamate] |  | 10 fold |  |
| CCOC(=O)Nc1nc(NCCCCN(CC)CC)c2c(n1)SC(c1ccccc1)C(c1ccccc1)=N2 (centres unmarked) [Compound 38, Ethyl (4-((4-(diethylamino)butyl)amino)-6,7-diphenyl-7H-pyrimido[4,5-b][1,4]thiazin-2-yl)carbamate] |  | 10 fold | 18.5 µM |
